From the NIST ThermoML archive (doi:10.1021/acs.jced.9b00507)

Test: xn = mol fraction of the nth substance listed
Conditions: 100 kPa, Liquid; for viscosity: Concentric cylinders viscometry; for mass density: Vibrating tube method

CCCCCCn1cc[n+](C)c1.O=[N+]([O-])[O-] [1-hexyl-3-methylimidazolium nitrate] + CCCCCCCCCCO
Conditions	mass density [kg/m3]	viscosity [mPa·s]
293.15 K, x1 = 0.0818	855.4	18.62
293.15 K, x1 = 0.1583	879.2	24.27
293.15 K, x1 = 0.2414	904.7	33.34
293.15 K, x1 = 0.3482	937.1	50.7
293.15 K, x1 = 0.4414	964.8	73.79
293.15 K, x1 = 0.5593	999.2	119.12
293.15 K, x1 = 0.6481	1024.6	173.38
293.15 K, x1 = 0.7414	1050.8	261.82
293.15 K, x1 = 0.8496	1080.4	419.76
293.15 K, x1 = 0.9402	1104.7	625.17
293.15 K, x1 = 1	1120.3	804.17
298.15 K, x1 = 0.0818	851.9	15
298.15 K, x1 = 0.1583	875.7	18.75
298.15 K, x1 = 0.2414	901.3	23.93
298.15 K, x1 = 0.3482	933.6	33.81
298.15 K, x1 = 0.4414	961.4	47.42
298.15 K, x1 = 0.5593	995.8	74.3
298.15 K, x1 = 0.6481	1021.3	111.69
298.15 K, x1 = 0.7414	1047.5	171
298.15 K, x1 = 0.8496	1077.3	276.06
298.15 K, x1 = 0.9402	1101.7	417.45
298.15 K, x1 = 1	1117.5	545.25
303.15 K, x1 = 0.0818	848.4	11.86
303.15 K, x1 = 0.1583	872.2	14.39
303.15 K, x1 = 0.2414	897.7	17.58
303.15 K, x1 = 0.3482	930	22.91
303.15 K, x1 = 0.4414	957.8	30.27
303.15 K, x1 = 0.5593	992.2	45.39
303.15 K, x1 = 0.6481	1017.7	65.77
303.15 K, x1 = 0.7414	1044	98.7
303.15 K, x1 = 0.8496	1073.9	168.66
303.15 K, x1 = 0.9402	1098.4	267.65
303.15 K, x1 = 1	1114.3	369.14
308.15 K, x1 = 0.0818	845	9.51
308.15 K, x1 = 0.1583	868.7	10.86
308.15 K, x1 = 0.2414	894.2	12.85
308.15 K, x1 = 0.3482	926.4	16.03
308.15 K, x1 = 0.4414	954.2	20.04
308.15 K, x1 = 0.5593	988.6	28.44
308.15 K, x1 = 0.6481	1014.2	39.63
308.15 K, x1 = 0.7414	1040.5	60.67
308.15 K, x1 = 0.8496	1070.5	108.57
308.15 K, x1 = 0.9402	1095.1	183.87
308.15 K, x1 = 1	1111.1	257.59
313.15 K, x1 = 0.0818	841.4	7.41
313.15 K, x1 = 0.1583	865.1	8.15
313.15 K, x1 = 0.2414	890.6	8.97
313.15 K, x1 = 0.3482	922.8	10.16
313.15 K, x1 = 0.4414	950.5	11.94
313.15 K, x1 = 0.5593	984.9	16.52
313.15 K, x1 = 0.6481	1010.5	23.5
313.15 K, x1 = 0.7414	1036.9	35.97
313.15 K, x1 = 0.8496	1067	67.47
313.15 K, x1 = 0.9402	1091.7	123.98
313.15 K, x1 = 1	1107.8	185.67
318.15 K, x1 = 0.0818	837.9	5.98
318.15 K, x1 = 0.1583	861.6	6.21
318.15 K, x1 = 0.2414	887	6.44
318.15 K, x1 = 0.3482	919.2	7.1
318.15 K, x1 = 0.4414	946.9	8.12
318.15 K, x1 = 0.5593	981.4	9.93
318.15 K, x1 = 0.6481	1007	13.43
318.15 K, x1 = 0.7414	1033.5	22.34
318.15 K, x1 = 0.8496	1063.7	47.97
318.15 K, x1 = 0.9402	1088.5	92.14
318.15 K, x1 = 1	1104.7	140.18
323.15 K, x1 = 0.0818	834.4	4.95
323.15 K, x1 = 0.1583	858	5.14
323.15 K, x1 = 0.2414	883.4	5.28
323.15 K, x1 = 0.3482	915.6	5.6
323.15 K, x1 = 0.4414	943.3	6.07
323.15 K, x1 = 0.5593	977.8	7.03
323.15 K, x1 = 0.6481	1003.5	9.04
323.15 K, x1 = 0.7414	1030	15.67
323.15 K, x1 = 0.8496	1060.4	36.3
323.15 K, x1 = 0.9402	1085.3	73.7
323.15 K, x1 = 1	1101.6	110.94
